The supplement of paper PMC10627819

Columns and labels:
[1] = test system: S. aureus Newman; test: fitness (endpoint OD595 vs no drug) (fraction); higher = more growth; settings: one replicate
In short: (§1)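 Volumes were 30 µl per well, or 55 µl for S. pneumoniae, in 384-well plates inoculated at OD595 0.01. Media were TSB, LB Lennox or CY at 37 °C, and OD595 was read every 30 min for 14 h with first-reading background subtraction. Fitness is the ratio of optical density at stationary-phase entry to the robust mean of no-drug controls. That ratio is capped at 1.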

[2] = test system: B. subtilis 168; test: as above
In short: as §1

[3] = test system: S. aureus DSM 20231; test: Bliss interaction score (quartile over a dose matrix) (fitness difference); higher = more antagonism (negative = synergy)
In short: (§2)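 Quartiles of the Bliss score were taken over technical, biological and donor/recipient replicates. That score is observed fitness minus the product of the single-drug fitness values, which were inferred from combination data. Fitness itself is OD595 at entry into stationary phase divided by the plate's robust no-drug mean, with a cap at 1.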

[4] = test system: S. aureus Newman; test: as above
In short: as §2

[5] = test system: B. subtilis 168; test: as above
In short: as §2

[6] = test system: S. pneumoniae D39V; test: as above
In short: as §2
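For Bliss interaction score (quartile over a dose matrix) in this document: first quartile when negative (synergy) and third quartile when positive (antagonism).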

CO/N=C(\C(=O)N[C@@H]1C(=O)N2C(C(=O)O)=C(COC(N)=O)CS[C@H]12)c1ccco1 [Cefuroxime] + CN1C2=CC=CC=C2N=C3C1=CC=CC3=O [Pyocyanin]
fitness
Settings	first compound 0.04875 µg/mL	first compound 0.0975 µg/mL	first compound 0.195 µg/mL
[1], partner 1.25 µg/mL	0.903	0.869	0.897
[1], partner 2.5 µg/mL	0.84	0.779	0.864
[1], partner 5 µg/mL	0.504	0.451	0.472
[2], partner 1.25 µg/mL	–	–	0.53
[2], partner 2.5 µg/mL	0.719	–	0.513
[2], partner 5 µg/mL	0.59	0.501	0.463

fitness, [2], one replicate
Settings	first compound 1.562 µg/mL	first compound 3.125 µg/mL	first compound 6.25 µg/mL
partner 1.25 µg/mL	0.331	0.306	0.24
partner 2.5 µg/mL	0.308	0.258	0.192
partner 5 µg/mL	0.253	0.215	0.184

Settings	Bliss interaction score
[3]	-0.0629
[4]	-0.0853
[5]	0.0646
[6]	-0.0309

CO/N=C(\C(=O)N[C@@H]1C(=O)N2C(C(=O)O)=C(COC(N)=O)CS[C@H]12)c1ccco1 [Cefuroxime] + CCN(CC)CCOC(=O)c1ccc(N)cc1 [Procaine]
fitness
Settings	first compound 0.04875 µg/mL	first compound 0.0975 µg/mL	first compound 0.195 µg/mL
[1], partner 85.5 µg/mL	0.953	0.92	0.904
[1], partner 171 µg/mL	0.962	0.904	0.905
[1], partner 342 µg/mL	0.947	0.907	0.902
[2], partner 85.5 µg/mL	0.756	0.685	0.527
[2], partner 171 µg/mL	0.762	0.65	0.512
[2], partner 342 µg/mL	0.75	–	0.519

fitness, [2], one replicate
Settings	first compound 1.562 µg/mL	first compound 3.125 µg/mL	first compound 6.25 µg/mL
partner 85.5 µg/mL	0.348	0.28	0.225
partner 171 µg/mL	0.288	0.256	0.153
partner 342 µg/mL	0.293	0.233	0.202

Settings	Bliss interaction score
[3]	0.0947
[4]	-0.0324
[5]	0.0619
[6]	-0.0452

CO/N=C(\C(=O)N[C@@H]1C(=O)N2C(C(=O)O)=C(COC(N)=O)CS[C@H]12)c1ccco1 [Cefuroxime] + CN[C@@H]1[C@H](O)[C@H](NC)[C@H]2O[C@@]3(O)C(=O)C[C@@H](C)O[C@H]3O[C@@H]2[C@H]1O [Spectinomycin]
fitness
Settings	first compound 0.04875 µg/mL	first compound 0.0975 µg/mL	first compound 0.195 µg/mL
[1], partner 4 µg/mL	0.932	0.971	0.9
[1], partner 8 µg/mL	0.943	0.96	0.877
[1], partner 16 µg/mL	0.94	0.918	0.84
[2], partner 2 µg/mL	0.717	0.667	0.55
[2], partner 4 µg/mL	0.799	0.645	0.569

fitness, [2], one replicate
Settings	first compound 1.562 µg/mL	first compound 3.125 µg/mL	first compound 6.25 µg/mL
partner 2 µg/mL	0.3	0.171	0.134
partner 4 µg/mL	0.234	0.0263	0.0348
partner 8 µg/mL	0.0211	0	0.0048

Settings	Bliss interaction score
[3]	0.116
[4]	0.127
[5]	-0.0976
[6]	0.0427

CO/N=C(\C(=O)N[C@@H]1C(=O)N2C(C(=O)O)=C(COC(N)=O)CS[C@H]12)c1ccco1 [Cefuroxime] + COc1ccc(C[C@H](N)C(=O)N[C@H]2[C@@H](O)[C@H](n3cnc4c(N(C)C)ncnc43)O[C@@H]2CO)cc1 [Puromycin]
fitness
Settings	first compound 0.04875 µg/mL	first compound 0.0975 µg/mL	first compound 0.195 µg/mL
[1], partner 0.39 µg/mL	0.925	0.95	0.938
[1], partner 0.78 µg/mL	0.969	0.945	0.956
[1], partner 1.56 µg/mL	0.951	0.98	0.983
[2], partner 0.39 µg/mL	0.758	0.65	0.551
[2], partner 0.78 µg/mL	0.787	0.705	0.539
[2], partner 1.56 µg/mL	0.772	0.678	0.586

fitness, [2], one replicate
Settings	first compound 1.562 µg/mL	first compound 3.125 µg/mL	first compound 6.25 µg/mL
partner 0.39 µg/mL	0.348	0.268	0.25
partner 0.78 µg/mL	0.369	0.288	0.286
partner 1.56 µg/mL	0.362	0.312	0.253

Settings	Bliss interaction score
[3]	0.127
[4]	0.0321
[5]	0.1
[6]	0.0887

CO/N=C(\C(=O)N[C@@H]1C(=O)N2C(C(=O)O)=C(COC(N)=O)CS[C@H]12)c1ccco1 [Cefuroxime] + CC1=C(C(=O)O)N2C(=O)[C@@H](NC(=O)[C@H](N)c3ccccc3)[C@H]2SC1 [Cephalexin]
fitness
Settings	first compound 0.04875 µg/mL	first compound 0.0975 µg/mL	first compound 0.195 µg/mL
[1], partner 0.5 µg/mL	0.925	0.883	0.943
[1], partner 1 µg/mL	0.99	0.917	0.941
[1], partner 2 µg/mL	≥ 1	0.967	0.949
[2], partner 0.25 µg/mL	0.709	0.683	0.507
[2], partner 0.5 µg/mL	0.729	0.706	0.527

fitness, [2], one replicate
Settings	first compound 0.04875 µg/mL	first compound 0.0975 µg/mL	first compound 0.195 µg/mL	first compound 1.562 µg/mL	first compound 3.125 µg/mL	first compound 6.25 µg/mL
partner 0.125 µg/mL	0.871	0.73	0.654	0.31	0.24	0.218
partner 0.25 µg/mL	–	–	–	0.236	0.238	0.197
partner 0.5 µg/mL	–	–	–	0.24	0.179	0.109
partner 1 µg/mL	0.545	0.533	0.354	–	–	–

Settings	Bliss interaction score
[3]	0.0711
[4]	-0.0321
[5]	-0.0402
[6]	0.0313

CO/N=C(\C(=O)N[C@@H]1C(=O)N2C(C(=O)O)=C(COC(N)=O)CS[C@H]12)c1ccco1 [Cefuroxime] + Cc1cc(NS(=O)(=O)c2ccc(N)cc2)no1 [Sulfamethoxazol]
fitness
Settings	first compound 0.04875 µg/mL	first compound 0.0975 µg/mL	first compound 0.195 µg/mL
[1], partner 1 µg/mL	≥ 1	0.954	0.879
[1], partner 2 µg/mL	0.953	0.966	0.836
[1], partner 4 µg/mL	0.986	0.935	0.84
[2], partner 1 µg/mL	0.708	0.67	0.404
[2], partner 2 µg/mL	0.709	0.632	0.398
[2], partner 4 µg/mL	0.687	0.636	0.5

fitness, [2], one replicate
Settings	first compound 0.195 µg/mL	first compound 0.39 µg/mL	first compound 0.78 µg/mL	first compound 1.562 µg/mL	first compound 3.125 µg/mL	first compound 6.25 µg/mL
partner 0.5 µg/mL	0.405	0.438	0.356	–	–	–
partner 1 µg/mL	–	0.0396	0.107	0.267	0.221	0.202
partner 2 µg/mL	–	0.29	0.262	0.251	0.198	0.132
partner 4 µg/mL	–	–	–	0.252	0.206	0.162

Settings	Bliss interaction score
[3]	0.111
[4]	-0.0351
[5]	-0.0536
[6]	-0.0409

CO/N=C(\C(=O)N[C@@H]1C(=O)N2C(C(=O)O)=C(COC(N)=O)CS[C@H]12)c1ccco1 [Cefuroxime] + CN(N=O)C(=O)N[C@@H](C=O)[C@@H](O)[C@H](O)[C@H](O)CO [Streptozotocin]
fitness
Settings	first compound 0.04875 µg/mL	first compound 0.0975 µg/mL	first compound 0.195 µg/mL
[1], partner 0.15 µg/mL	0.958	0.995	0.96
[1], partner 0.3 µg/mL	0.731	0.723	0.736
[1], partner 0.6 µg/mL	0.534	0.51	0.464
[2], partner 0.15 µg/mL	0.717	0.688	0.539
[2], partner 0.3 µg/mL	–	–	0.54
[2], partner 0.6 µg/mL	–	–	0.496

Settings	Bliss interaction score
[3]	0.0897
[4]	-0.194
[5]	-0.0649
[6]	-0.0368

CO/N=C(\C(=O)N[C@@H]1C(=O)N2C(C(=O)O)=C(COC(N)=O)CS[C@H]12)c1ccco1 [Cefuroxime] + CN(C)c1cc(NC(=O)CNC(C)(C)C)c(O)c2c1C[C@H]1C[C@H]3[C@H](N(C)C)C(O)=C(C(N)=O)C(=O)[C@@]3(O)C(O)=C1C2=O [Tigecycline]
fitness
Settings	partner 0.039 µg/mL	partner 0.078 µg/mL	partner 0.156 µg/mL
[1], first compound 0.04875 µg/mL	0.933	0.907	0.95
[1], first compound 0.0975 µg/mL	0.927	0.959	0.895
[1], first compound 0.195 µg/mL	0.879	0.843	0.863
[2], first compound 0.0975 µg/mL	0.652	0.677	0.669
[2], first compound 0.195 µg/mL	0.553	0.53	0.537

fitness, [2], one replicate
Settings	first compound 0.195 µg/mL	first compound 0.39 µg/mL	first compound 0.78 µg/mL	first compound 1.562 µg/mL	first compound 3.125 µg/mL	first compound 6.25 µg/mL
partner 0.039 µg/mL	–	–	–	0.349	0.258	0.227
partner 0.078 µg/mL	–	–	–	0.284	0.219	0.17
partner 0.125 µg/mL	0.405	0.34	0.292	–	–	–
partner 0.156 µg/mL	–	–	–	0.283	0.235	0.153
partner 0.25 µg/mL	0.368	0.287	0.211	–	–	–
partner 0.5 µg/mL	0.398	0.299	0.259	–	–	–

Settings	Bliss interaction score
[3]	0.0902
[4]	-0.0442
[5]	0.0459
[6]	0.0499

CO/N=C(\C(=O)N[C@@H]1C(=O)N2C(C(=O)O)=C(COC(C)=O)CS[C@H]12)c1csc(N)n1 [Cefotaxime] + CO/N=C(\C(=O)N[C@@H]1C(=O)N2C(C(=O)O)=C(COC(N)=O)CS[C@H]12)c1ccco1 [Cefuroxime]
fitness, [1]
Settings	first compound 0.078 µg/mL	first compound 0.156 µg/mL	first compound 0.312 µg/mL
partner 0.04875 µg/mL	0.834	0.698	0.384
partner 0.0975 µg/mL	0.798	0.574	0.295
partner 0.195 µg/mL	0.84	0.596	0.237

fitness, [2], one replicate
Settings	first compound 0.00775 µg/mL	first compound 0.0155 µg/mL	first compound 0.031 µg/mL	first compound 0.0625 µg/mL	first compound 0.125 µg/mL	first compound 0.25 µg/mL	first compound 0.5 µg/mL	first compound 1 µg/mL	first compound 2 µg/mL
partner 0.04875 µg/mL	–	–	–	0.421	0.41	0.354	0.0782	0.0681	0.0589
partner 0.0975 µg/mL	–	–	–	0.492	0.444	0.451	0.0682	0.0388	0.0337
partner 0.195 µg/mL	0.236	0.172	0.176	0.329	0.331	0.305	0.0838	0.0517	0.0469
partner 0.39 µg/mL	0.194	0.121	0.138	–	–	–	–	–	–
partner 0.78 µg/mL	0.147	0.0786	0.0789	–	–	–	–	–	–
partner 1.562 µg/mL	–	–	–	–	–	–	0.308	0.139	0.161
partner 3.125 µg/mL	–	–	–	–	–	–	0.286	0.1	0.138
partner 6.25 µg/mL	–	–	–	–	–	–	0.261	0.114	0.0944

Settings	Bliss interaction score
[3]	0.107
[4]	-0.0451
[5]	0.0852
[6]	-0.0369
